As usually defined, the EC50 is the concentration that produces a half-maximal response. A word on the Ki: it is the dissociation constant of the complex between target and ligand, obtained from inhibition or displacement. A lower Ki goes with higher affinity. Usually IC50 stands for the point on the concentration scale where inhibition reaches its midpoint.

For assay [1], the system named is MM1.S (multiple myeloma) cells. Description: In vitro cell proliferation potency assay, MM1.S cells (Cell Titer Glo). Type of assay: cell-based. As to conditions: Homo sapiens, 72 hours, read-out: Prolif. MM1S ATP (EC50). On the procedure:
(§1) In Vitro Cell Proliferation Potency Assays
(§2) BaF3 parental line was obtained from the DSMZ repository. BaF3 lines transfected with PIM-1 or PIM-2 were generated. Mouse IL-3 was purchased from R&D Systems. G418 was purchased from Clontech. Media for BaF3 parental line contained RPMI, 10% FBS, 2 mM L-Glutamine, 2 ng/mL mIL-3. Media for BaF3 PIM1 & 2 lines contained RPMI, 10% FBS, 2 mM L-Glutamine, […]. Media for MM1.S (multiple myeloma cells) line contained RPMI, 10% FBS, 2 mM L-Glutamine.
(§3) BaF3, a murine interleukin-3 dependent pro-B cell line, parental cells, BaF3 PIM1 cells, BaF3 PIM-2 cells, and MM1.S (multiple myeloma) cells were seeded at 2 k/well, 5 k/well, 5 k/well, and 10 k/well respectively, in a 384-well plate, at 45 μL/well. Test compound was added at 5 μL/well. BaF3 cells (parental and transfected) were incubated overnight, while MM1.S cells were incubated for 72 hours at 37° C., 5% CO2. Cell Titer Glo Reagent (Promega) was added at 50 μL/well, the plates were incubated for 30 minutes, and their luminescence read on an HT Analyst. IC50/EC50 values for the test compound were calculated.

The next assay addresses Pim-1 (Homo sapiens (Human), UniProt P11309). In words: Pim kinase binding activity assay (Example 901), PIM-1 enzyme, Caliper microfluidic peptide phosphorylation. The class given is biochemical. As to conditions: 20 pM PIM-1, 10 μM ATP, 1 μM FAM-peptide, 90 minutes at room temperature. The method in brief: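 The readout was microfluidic mobility-shift separation of a FAM-tagged Pim-specific peptide, excited at 488 nm and read at 530 nm, with Ki calculated from percent conversion. Reactions held 20 pM PIM-1, 1 μM peptide and 10 μM ATP in pH 7.2 HEPES/MgCl2/DTT buffer, ran 90 min at room temperature and were stopped with EDTA.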

The subject of the next assay is BaF3 parental cells. Description: In vitro cell proliferation potency assay, BaF3 parental line with IL-3 (Cell Titer Glo). The class given is cell-based, murine. As to conditions: Mus musculus, 2 ng/mL mIL-3, incubated overnight, read-out: Prolif. BaF3 IL3 (IC50). As to the method:
as §1, §2, §3
On the technique in general: In ATP-based viability assays light output follows the ATP content of the culture.

A further assay concerns BaF3 PIM1 cells. Description: In vitro cell proliferation potency assay, BaF3 line transfected with PIM-1 (Cell Titer Glo). The settings on record: Mus musculus, incubated overnight, read-out: Prolif. BaF3 PIM-1 (IC50). Type of assay: cell-based, murine. On the procedure:
as §1
BaF3 parental line was obtained from the DSMZ repository. […] Mouse IL-3 was purchased from R&D Systems. G418 was purchased from Clontech. Media for BaF3 parental line contained RPMI, 10% FBS, 2 mM L-Glutamine, 2 ng/mL mIL-3. Media for BaF3 PIM1 & 2 lines contained RPMI, 10% FBS, 2 mM L-Glutamine, […]. Media for MM1.S (multiple myeloma cells) line contained RPMI, 10% FBS, 2 mM L-Glutamine.
as §3

Sequence of Pim-1 (P11309 whole entry): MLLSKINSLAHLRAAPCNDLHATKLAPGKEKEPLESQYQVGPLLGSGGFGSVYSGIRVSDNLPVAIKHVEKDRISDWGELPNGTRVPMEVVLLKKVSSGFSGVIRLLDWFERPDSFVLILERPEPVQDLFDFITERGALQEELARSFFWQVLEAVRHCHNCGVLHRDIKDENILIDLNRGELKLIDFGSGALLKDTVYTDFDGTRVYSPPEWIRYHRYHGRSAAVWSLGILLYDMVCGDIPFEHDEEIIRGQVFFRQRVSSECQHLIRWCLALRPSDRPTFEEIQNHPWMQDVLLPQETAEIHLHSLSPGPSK

Regarding `CCn1cc(-c2cc3c(-c4cccc(N5CCNCC5)n4)n[nH]c3cn2)cn1` [Example 356, 5-(1-ethyl-1H-pyrazol-4-yl)-3-(6-(piperazin-1-yl)pyridin-2-yl)-1H-pyrazolo[3,4-c]pyridine], in assay [1], the 50% effective concentration (EC50) came out at 638 nM. This compound also showed a Ki on Pim-1 of 0.073 nM. Also, the results for the IC50 in the assay on BaF3 parental cells and in the assay with BaF3 PIM1 cells were 5400 nM and 76.6 nM, respectively.
On the same counts, the results for `Cn1cc(-c2cc3c(-c4cccc(N5CCCC(C)(O)C5)n4)n[nH]c3cn2)cn1` (stereo not drawn) [Example 383, 3-methyl-1-(6-(5-(1-methyl-1H-pyrazol-4-yl)-1H-pyrazolo[3,4-c]pyridin-3-yl)pyridin-2-yl)piperidin-3-ol] are 170 nM, 0.078 nM, 1300 nM and 110 nM.
The like results for `N[C@@H]1CCCN(c2cccc(-c3n[nH]c4cnc(-c5cccnc5)cc34)n2)C1` [Example 149, (R)-1-(6-(5-(pyridin-3-yl)-1H-pyrazolo[3,4-c]pyridin-3-yl)pyridin-2-yl)piperidin-3-amine] were, in that order, 166 nM, 0.027 nM, 1500 nM and 261 nM.
The like results for `NC1CCN(c2cncc(-c3cc4c(-c5ccccc5F)n[nH]c4cn3)n2)CC1` [Example 147, 1-(6-(3-(2-fluorophenyl)-1H-pyrazolo[3,4-c]pyridin-5-yl)pyrazin-2-yl)piperidin-4-amine] were, in that order, 60.4 nM, 0.121 nM, 3900 nM and 368 nM.
For the compound `c1cc(-c2n[nH]c3cnc(-c4cnn(C5CCC5)c4)cc23)nc(N2CCNCC2)c1` [Example 390, 5-(1-cyclobutyl-1H-pyrazol-4-yl)-3-(6-(piperazin-1-yl)pyridin-2-yl)-1H-pyrazolo[3,4-c]pyridine], the EC50 in assay [1] stood at 130 nM. This compound also came in with a Ki at Pim-1 of 0.132 nM. Further, the results for the IC50 with BaF3 parental cells and in the assay on BaF3 PIM1 cells were 5700 nM and 58.5 nM, respectively.
Turning to `N[C@H]1CCN(c2cncc(-c3cc4c(-c5ccccc5F)n[nH]c4cn3)c2)C1` [Example 190, (S)-1-(5-(3-(2-fluorophenyl)-1H-pyrazolo[3,4-c]pyridin-5-yl)pyridin-3-yl)pyrrolidin-3-amine], the 50% effective concentration (EC50) in assay [1] was 67.2 nM. This compound also gave a Ki at Pim-1 of 0.27 nM. The IC50 amounted to 1800 nM in the assay on BaF3 parental cells and 159 nM in the assay with BaF3 PIM1 cells.
In the case of `NC1CCN(c2nc(-c3n[nH]c4cnc(-c5cccnc5)cc34)ccc2Cl)CC1` [Example 241, 1-(3-chloro-6-(5-(pyridin-3-yl)-1H-pyrazolo[3,4-c]pyridin-3-yl)pyridin-2-yl)piperidin-4-amine], the concentration giving a half-maximal response (EC50) in assay [1] stood at 57.3 nM. The compound further had a Ki on Pim-1 of 0.096 nM. In addition, the IC50 was found to be 1300 nM in the assay on BaF3 parental cells and 584 nM with BaF3 PIM1 cells.
The like results for `CCn1cc(-c2cc3c(-c4cccc(N5CCC[C@H](NC)C5)n4)n[nH]c3cn2)cn1` [Example 377, (S)-1-(6-(5-(1-ethyl-1H-pyrazol-4-yl)-1H-pyrazolo[3,4-c]pyridin-3-yl)pyridin-2-yl)-N-methylpiperidin-3-amine] were, in that order, 230 nM, 0.08 nM, 5300 nM and 63.7 nM.
The like results for `OCCN1CCCN(c2cccc(-c3n[nH]c4cnc(-c5cccnc5)cc34)n2)CC1` [Example 357, 2-(4-(6-(5-(pyridin-3-yl)-1H-pyrazolo[3,4-c]pyridin-3-yl)pyridin-2-yl)-1,4-diazepan-1-yl)ethanol] were, in that order, 244 nM, 0.26 nM, 4900 nM and 709 nM.
On the same counts, the results for `NC1CCN(c2cccc(-c3n[nH]c4cnc(-c5cccnc5)cc34)n2)CC1` [Example 144, 1-(6-(5-(pyridin-3-yl)-1H-pyrazolo[3,4-c]pyridin-3-yl)pyridin-2-yl)piperidin-4-amine] are 2200 nM, 0.0839 nM, 3300 nM and 130 nM.
`Cc1ccc(-c2n[nH]c3cnc(-c4cccnc4)cc23)nc1N1CC[C@@H](N)C1` [Example 316, (R)-1-(3-methyl-6-(5-(pyridin-3-yl)-1H-pyrazolo[3,4-c]pyridin-3-yl)pyridin-2-yl)pyrrolidin-3-amine]: the 50% effective concentration (EC50) in assay [1] is 114 nM. On Pim-1, this compound returned a Ki of 0.0549 nM. The IC50 in the assay with BaF3 parental cells was found to be 1000 nM; in the assay with BaF3 PIM1 cells, 62.8 nM.
On the same counts, the results for `Cn1cc(-c2cc3c(-c4ccc(Br)c(N5CCC[C@H](N)C5)n4)n[nH]c3cn2)cn1` [Example 376, (S)-1-(3-bromo-6-(5-(1-methyl-1H-pyrazol-4-yl)-1H-pyrazolo[3,4-c]pyridin-3-yl)pyridin-2-yl)piperidin-3-amine] are 356 nM, 0.009 nM, 4100 nM and 30.9 nM.

The values above are taken from US9260425B2 (Genetech, Inc., priority 2011, dated 2016).
